The term EC50 denotes the concentration needed to bring the measured effect to its halfway point. The IC50 is the concentration that inhibits the measured activity by half. Lower therefore signals higher potency.

Read-outs that look alike come from different tables or passages of the source.

Data on 35 compounds can be found in patent US8106205B2, “N[S(4-aryl-triazol-3-yl)α-mercaptoacetyl]p-amino benzoic acids as HIV reverse transcriptase inhibitors” (priority 2004, dated 2012).

For one experiment, the system named is wild-type (WT) HIV. Kind of experiment: EC50 against wild-type HIV. It counts as cell-based.
A further experiment addresses wild type HIV RT (Human immunodeficiency virus type 1 group M subtype B, UniProt P04585). The experiment is described as follows: IC50 against wild-type HIV reverse transcriptase. It counts as biochemical. The protocol: Compounds of the invention were tested against the wild-type and four mutant HIV reverse transcriptases. The results are listed in Table 1 and Table 2 as EC50 (nM) and IC50 (nM). In Tables 1 and 2, A represents <50 nM, B is between 50 and 100 nM, and C is >100 nM. ND is not determined. […]

Where [1] appears, read: Table 2, wild-type, read-out: EC50 WT.
Setting [2] is: Human immunodeficiency virus 1, read-out: EC50 WT (nM).
Where [3] appears, read: Human immunodeficiency virus 1, read-out: EC50 WT.

Take `NS(=O)(=O)c1ccc(NC(=O)CSc2nnc(Br)n2-c2c(Cl)cc(C3CCC3)c3ccccc23)c(Cl)c1` (single isomer, unassigned) [Compound 68]: the EC50 in the experiment on wild-type (WT) HIV (setting [1]) is less than 50 nM. This compound also gave an IC50 on wild type HIV RT (Table 2, wild-type RT) of less than 50 nM.

On to `NS(=O)(=O)c1ccc(NC(=O)CSc2nnc(Br)n2-c2c(Cl)cc(C3CCC3)c3ccccc23)c(Cl)c1` (single isomer, unassigned) [Compound 69], for which the EC50 in the experiment with wild-type (WT) HIV (setting [1]) is less than 50 nM. The compound further returned an IC50 on wild type HIV RT (Table 2, wild-type RT) of less than 50 nM.

As for `COc1ccc2c(C)ccc(-n3c(Br)nnc3SCC(=O)Nc3ccc(C(=O)O)cc3Cl)c2c1` [Compound 15], the EC50 with wild-type (WT) HIV (setting [2]) was less than 50 nM. The compound further displayed an IC50 against wild type HIV RT (Table 1, wild-type RT) of less than 50 nM.

For `Cc1cc(C2CC2)cc(Cl)c1-n1c(Br)nnc1SCC(=O)Nc1ccc(C(=O)O)cc1Cl` [Compound 20], in the experiment with wild-type (WT) HIV (setting [2]), the EC50 is less than 50 nM. For the same compound, on wild type HIV RT (Table 1, wild-type RT), the IC50 was less than 50 nM.

For the compound `CC(Sc1nnc(Br)n1-c1ccc(C2CC2)c2ccccc12)C(=O)Nc1ccc(S(N)(=O)=O)cc1Cl` (centres unmarked) [Compound 44], in the experiment on wild-type (WT) HIV (setting [3]), the concentration for a half-maximal effect (EC50) is less than 50 nM. For the same compound, the IC50 against wild type HIV RT (Table 2, wild-type RT) was less than 50 nM.

Turning to `NS(=O)(=O)c1ccc(NC(=O)CSc2nnc(Br)n2-c2ccc(C3CC3)c3ccccc23)c(Cl)c1` [Compound 45], the EC50 in the experiment with wild-type (WT) HIV (setting [1]) was less than 50 nM. For the same compound, the concentration for half-maximal inhibition (IC50) at wild type HIV RT (Table 2, wild-type RT) was less than 50 nM.

For the compound `NS(=O)(=O)c1ccc(NC(=O)CSc2nnc(Br)n2-c2ccc(C3CC3)cc2)c(Cl)c1` [Compound 46], the EC50 with wild-type (WT) HIV (setting [3]) was less than 50 nM. In addition, the 50% inhibitory concentration (IC50) at wild type HIV RT (Table 2, wild-type RT) is less than 50 nM.

Regarding `CC(=O)OC(C)OC(=O)NS(=O)(=O)c1ccc(NC(=O)CSc2nnc(Br)n2-c2ccc(C3CC3)c3ccccc23)c(Cl)c1` (centres unmarked) [Compound 47], the EC50 in the experiment on wild-type (WT) HIV (setting [1]) is less than 50 nM. On wild type HIV RT (Table 2, wild-type RT), this compound returned an IC50 of less than 50 nM.

In the case of `CC(=O)NS(=O)(=O)c1ccc(NC(=O)CSc2nnc(Br)n2-c2ccc(C3CC3)c3ccccc23)c(Cl)c1` [Compound 48], in the experiment on wild-type (WT) HIV (setting [1]), the EC50 was less than 50 nM. Also, the IC50 against wild type HIV RT (Table 2, wild-type RT) is less than 50 nM.

As for `CCc1ccc(-n2c(Br)nnc2SCC(=O)Nc2ccc(S(N)(=O)=O)cc2Cl)c2c1CCCC2` [Compound 50], the EC50 with wild-type (WT) HIV (setting [1]) is less than 50 nM. In addition, the IC50 at wild type HIV RT (Table 2, wild-type RT) was less than 50 nM.

Consider `Cc1cc(S(N)(=O)=O)ccc1NC(=O)CSc1nnc(Br)n1-c1ccc(C)c2c1CCCC2` [Compound 51], for which the EC50 in the experiment with wild-type (WT) HIV (setting [1]) is less than 50 nM. At wild type HIV RT (Table 2, wild-type RT), the IC50 is less than 50 nM.

As for `Cc1ccc2c(C)ccc(-n3c(Br)nnc3SCC(=O)Nc3ccc(S(N)(=O)=O)cc3Br)c2c1` [Compound 52], the EC50 with wild-type (WT) HIV (setting [1]) was less than 50 nM. Also, the IC50 at wild type HIV RT (Table 2, wild-type RT) is less than 50 nM.

With `Cc1cc(C)c2ccccc2c1-n1c(CF)nnc1SCC(=O)Nc1ccc(S(N)(=O)=O)cc1Cl` [Compound 53], in the experiment on wild-type (WT) HIV (setting [1]), the EC50 was less than 50 nM. On wild type HIV RT (Table 2, wild-type RT), the IC50 was less than 50 nM.

As for `Cc1cc(C)c(-n2c(SCC(=O)Nc3ccc(S(N)(=O)=O)cc3Cl)nnc2C(F)(F)F)c2c1CCCC2` [Compound 54], in the experiment on wild-type (WT) HIV (setting [3]), the EC50 is less than 50 nM. The 50% inhibitory concentration (IC50) at wild type HIV RT (Table 2, wild-type RT) was less than 50 nM.

For the compound `CCCc1ccc(-n2c(Br)nnc2SCC(=O)Nc2ccc(S(N)(=O)=O)cc2Cl)c2ccccc12` [Compound 55], the EC50 with wild-type (WT) HIV (setting [1]) is less than 50 nM. The compound also had an IC50 on wild type HIV RT (Table 2, wild-type RT) of less than 50 nM.

In the case of `CCCc1ccc(-n2c(Br)nnc2SCC(=O)Nc2ccc(S(N)(=O)=O)cc2C)c2ccccc12` [Compound 56], in the experiment with wild-type (WT) HIV (setting [1]), the EC50 was less than 50 nM. On wild type HIV RT (Table 2, wild-type RT), this compound showed an IC50 of less than 50 nM.

`CCc1ccc(-n2c(Br)nnc2SCC(=O)Nc2ccc(S(N)(=O)=O)cc2Cl)c2ccccc12` [Compound 57]: the EC50 in the experiment on wild-type (WT) HIV (setting [1]) is less than 50 nM. Also, the IC50 against wild type HIV RT (Table 2, wild-type RT) is less than 50 nM.

Turning to `CCCC(=O)NS(=O)(=O)c1ccc(NC(=O)CSc2nnc(Br)n2-c2ccc(C3CC3)c3ccccc23)c(Cl)c1` [Compound 58], the EC50 in the experiment on wild-type (WT) HIV (setting [3]) is less than 50 nM. The compound also gave an IC50 at wild type HIV RT (Table 2, wild-type RT) of less than 50 nM.

For the compound `N[C@@H](CC(=O)NS(=O)(=O)c1ccc(NC(=O)CSc2nnc(Cl)n2-c2ccc(C3CC3)c3ccccc23)c(Cl)c1)C(=O)O` [Compound 59], the EC50 with wild-type (WT) HIV (setting [1]) is less than 50 nM. On wild type HIV RT (Table 2, wild-type RT), this compound returned an IC50 of less than 50 nM.

Regarding `NCCC[C@@H](N)C(=O)NS(=O)(=O)c1ccc(NC(=O)CSc2nnc(Br)n2-c2ccc(C3CC3)c3ccccc23)c(Cl)c1` [Compound 60], the EC50 with wild-type (WT) HIV (setting [1]) was less than 50 nM. The same compound came in with an IC50 at wild type HIV RT (Table 2, wild-type RT) of less than 50 nM.

In the case of `Cc1cc(C2CC2)ccc1-n1c(Br)nnc1SCC(=O)Nc1ccc(S(N)(=O)=O)cc1Cl` [Compound 61], the EC50 in the experiment on wild-type (WT) HIV (setting [1]) was less than 50 nM.

For `NCCC(N)C(=O)NS(=O)(=O)c1ccc(NC(=O)CSc2nnc(Br)n2-c2ccc(C3CC3)c3ccccc23)c(Cl)c1` (centres unmarked) [Compound 62], the EC50 with wild-type (WT) HIV (setting [1]) is less than 50 nM. The IC50 on wild type HIV RT (Table 2, wild-type RT) is less than 50 nM.

Regarding `N[C@@H](CC(=O)NS(=O)(=O)c1ccc(NC(=O)CSc2nnc(Br)n2-c2ccc(C3CC3)c3ccccc23)c(Cl)c1)C(=O)O` [Compound 63], the EC50 in the experiment on wild-type (WT) HIV (setting [1]) is less than 50 nM. The compound also showed an IC50 against wild type HIV RT (Table 2, wild-type RT) of less than 50 nM.

As for `N[C@@H](CCC(=O)NS(=O)(=O)c1ccc(NC(=O)CSc2nnc(Br)n2-c2ccc(C3CC3)c3ccccc23)c(Cl)c1)C(=O)O` [Compound 64], the EC50 in the experiment on wild-type (WT) HIV (setting [1]) was less than 50 nM. Further, the IC50 on wild type HIV RT (Table 2, wild-type RT) is less than 50 nM.

Take `NS(=O)(=O)c1ccc(NC(=O)CSc2nnc(Cl)n2-c2ccc(C3CC3)c3ccccc23)c(Cl)c1` [Compound 65]: the EC50 in the experiment with wild-type (WT) HIV (setting [1]) was less than 50 nM. For the same compound, the IC50 against wild type HIV RT (Table 2, wild-type RT) is less than 50 nM.

For the compound `NS(=O)(=O)c1ccc(NC(=O)CSc2nnc(Br)n2-c2ccc(C3CC3)cc2OC(F)(F)F)c(Cl)c1` [Compound 66], in the experiment with wild-type (WT) HIV (setting [3]), the concentration giving a half-maximal response (EC50) was less than 50 nM. For the same compound, the concentration for half-maximal inhibition (IC50) against wild type HIV RT (Table 2, wild-type RT) was less than 50 nM.

On to `COCCC(=O)NS(=O)(=O)c1ccc(NC(=O)CSc2nnc(Br)n2-c2ccc(C3CC3)c3ccccc23)c(Cl)c1` [Compound 67], for which the EC50 in the experiment on wild-type (WT) HIV (setting [3]) is less than 50 nM. This compound had an IC50 at wild type HIV RT (Table 2, wild-type RT) of less than 50 nM.

As for `Cc1cc(C2CC2)cc(Cl)c1-n1c(Br)nnc1SCC(=O)Nc1ccc(S(N)(=O)=O)cc1Cl` [Compound 70], in the experiment with wild-type (WT) HIV (setting [3]), the EC50 was less than 50 nM. The compound further registered an IC50 against wild type HIV RT (Table 2, wild-type RT) of less than 50 nM.

For `O=C(O)CCC(=O)NS(=O)(=O)c1ccc(NC(=O)CSc2nnc(Br)n2-c2ccc(C3CC3)c3ccccc23)c(Cl)c1` [Compound 71], in the experiment with wild-type (WT) HIV (setting [1]), the EC50 lay within 50 to 100 nM. The half-maximal inhibitory concentration (IC50) at wild type HIV RT (Table 2, wild-type RT) was less than 50 nM.

In the case of `Cc1cc(S(N)(=O)=O)ccc1NC(=O)CSc1nnc(Br)n1-c1ccc(C2CCC2)c2ccccc12` [Compound 72], the concentration for a half-maximal effect (EC50) in the experiment on wild-type (WT) HIV (setting [3]) is less than 50 nM. For the same compound, the IC50 on wild type HIV RT (Table 2, wild-type RT) is less than 50 nM.

For the compound `NS(=O)(=O)c1ccc(NC(=O)CSc2nnc(Br)n2-c2ccc(C3CCC3)c3ccccc23)c(Cl)c1` [Compound 73], the EC50 in the experiment on wild-type (WT) HIV (setting [1]) was less than 50 nM. This compound also registered an IC50 on wild type HIV RT (Table 2, wild-type RT) of less than 50 nM.

For the compound `CCCCC(=O)NS(=O)(=O)c1ccc(NC(=O)CSc2nnc(Br)n2-c2ccc(C3CC3)c3ccccc23)c(Cl)c1` [Compound 74], the EC50 with wild-type (WT) HIV (setting [1]) was less than 50 nM. Moreover, on wild type HIV RT (Table 2, wild-type RT), the IC50 was less than 50 nM.

`CCCCCC(=O)NS(=O)(=O)c1ccc(NC(=O)CSc2nnc(Br)n2-c2ccc(C3CC3)c3ccccc23)c(Cl)c1` [Compound 75]: the EC50 with wild-type (WT) HIV (setting [1]) is less than 50 nM. This compound returned an IC50 at wild type HIV RT (Table 2, wild-type RT) of less than 50 nM.

As for `N#Cc1cccc2c(-n3c(SCC(=O)Nc4ccc(S(N)(=O)=O)cc4Cl)nnc3C(F)F)cccc12` [Compound 76], the EC50 with wild-type (WT) HIV (setting [3]) was less than 50 nM. This compound also returned an IC50 on wild type HIV RT (Table 2, wild-type RT) of 50 to 100 nM.

Consider `Cc1cc(S(N)(=O)=O)ccc1NC(=O)CSc1nnc(C(F)F)n1-c1cccc2c(C#N)cccc12` [Compound 77], for which the IC50 at wild type HIV RT (Table 2, wild-type RT) was greater than 100 nM.
